According to PubChem BioAssay AID1919007 (Molecular Pharmacology Branch, DTP, NCI, 2023):

Tested on: A498 complex spheroids with HUVEC/MSC, growth
Test: Anticancer human tumor A498 cell line growth inhibition [AhR];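 also: seven day exposure starting three days after spheroid seeding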;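 as to viability, T/C: luminescence signal used as a surrogate for viable cells; luminescence viability scaled so 100% equals DMSO vehicle wells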
Settings: for IC50: curve of first compound; for viability, T/C: stronger effect = lower value
Method in brief: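 Spheroids combined tumor cells with HUVEC endothelial cells and human MSCs as stroma. AhR antagonists were paired with standard or investigational drugs, each dosed in half-log steps down from near clinical Cmax, or from 10 microM where Cmax was unknown.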

[1] = second compound 0.1 µM, first compound 0.0316 µM
[2] = second compound 0.1 µM, first compound 0.1 µM
[3] = second compound 0.1 µM, first compound 0.316 µM
[4] = second compound 0.1 µM, first compound 1 µM
[5] = second compound 0.1 µM, first compound 3.16 µM
[6] = second compound 0.1 µM, first compound 10 µM
[7] = second compound 0.316 µM, first compound 0.0316 µM
[8] = second compound 0.316 µM, first compound 0.1 µM
[9] = second compound 0.316 µM, first compound 0.316 µM
[10] = second compound 0.316 µM, first compound 1 µM
[11] = second compound 0.316 µM, first compound 3.16 µM
[12] = second compound 0.316 µM, first compound 10 µM
[13] = second compound 1 µM, first compound 0.0316 µM
[14] = second compound 1 µM, first compound 0.1 µM
[15] = second compound 1 µM, first compound 0.316 µM
[16] = second compound 1 µM, first compound 1 µM
[17] = second compound 1 µM, first compound 3.16 µM
[18] = second compound 1 µM, first compound 10 µM
[19] = second compound 3.16 µM, first compound 0.0316 µM
[20] = second compound 3.16 µM, first compound 0.1 µM
[21] = second compound 3.16 µM, first compound 0.316 µM
[22] = second compound 3.16 µM, first compound 1 µM
[23] = second compound 3.16 µM, first compound 3.16 µM
[24] = second compound 3.16 µM, first compound 10 µM
[25] = second compound 10 µM, first compound 0.0316 µM
[26] = second compound 10 µM, first compound 0.1 µM
[27] = second compound 10 µM, first compound 0.316 µM
[28] = second compound 10 µM, first compound 1 µM
[29] = second compound 10 µM, first compound 3.16 µM
[30] = second compound 10 µM, first compound 10 µM

SMILES: CCc1c2c(nc3ccc(O)cc13)-c1cc3c(c(=O)n1C2)COC(=O)[C@]3(O)CC + Cc1cncc(-c2nc(NCCc3c[nH]c4ccccc34)c3ncn(C(C)C)c3n2)c1
- IC50 (second compound 0.1 µM): 0.0328 µM
- IC50 (second compound 0.316 µM): 0.0337 µM
- IC50 (second compound 1 µM): 0.0236 µM
- IC50 (second compound 3.16 µM): 0.014 µM
- IC50 (second compound 10 µM): < 0.000949 µM
- viability, T/C (second compound 0.1 µM, first compound 0.000949 µM): 78.1%
- viability, T/C (second compound 0.1 µM, first compound 0.003 µM): 81.4%
- viability, T/C (second compound 0.1 µM, first compound 0.00949 µM): 70.2%
- viability, T/C (second compound 0.1 µM, first compound 0.03 µM): 51%
- viability, T/C (second compound 0.1 µM, first compound 0.0949 µM): 39.1%
- viability, T/C (second compound 0.1 µM, first compound 0.3 µM): 35.3%
- viability, T/C (second compound 0.316 µM, first compound 0.000949 µM): 85.7%
- viability, T/C (second compound 0.316 µM, first compound 0.003 µM): 76%
- viability, T/C (second compound 0.316 µM, first compound 0.00949 µM): 67.1%
- viability, T/C (second compound 0.316 µM, first compound 0.03 µM): 52.7%
- viability, T/C (second compound 0.316 µM, first compound 0.0949 µM): 36.7%
- viability, T/C (second compound 0.316 µM, first compound 0.3 µM): 35.2%
- viability, T/C (second compound 1 µM, first compound 0.000949 µM): 77.1%
- viability, T/C (second compound 1 µM, first compound 0.003 µM): 72.8%
- viability, T/C (second compound 1 µM, first compound 0.00949 µM): 66.8%
- viability, T/C (second compound 1 µM, first compound 0.03 µM): 45.4%
- viability, T/C (second compound 1 µM, first compound 0.0949 µM): 32.4%
- viability, T/C (second compound 1 µM, first compound 0.3 µM): 29.1%
- viability, T/C (second compound 3.16 µM, first compound 0.000949 µM): 50.7%
- viability, T/C (second compound 3.16 µM, first compound 0.003 µM): 53.5%
- viability, T/C (second compound 3.16 µM, first compound 0.00949 µM): 58.1%
- viability, T/C (second compound 3.16 µM, first compound 0.03 µM): 42%
- viability, T/C (second compound 3.16 µM, first compound 0.0949 µM): 29.1%
- viability, T/C (second compound 3.16 µM, first compound 0.3 µM): 26.3%
- viability, T/C (second compound 10 µM, first compound 0.000949 µM): 5.42%
- viability, T/C (second compound 10 µM, first compound 0.003 µM): 4.3%
- viability, T/C (second compound 10 µM, first compound 0.00949 µM): 6.41%
- viability, T/C (second compound 10 µM, first compound 0.03 µM): 7.12%
- viability, T/C (second compound 10 µM, first compound 0.0949 µM): 5.73%
- viability, T/C (second compound 10 µM, first compound 0.3 µM): 4.65%

SMILES: Nc1ccccc1NC(=O)c1ccc(CNC(=O)OCc2cccnc2)cc1 + Cc1cncc(-c2nc(NCCc3c[nH]c4ccccc34)c3ncn(C(C)C)c3n2)c1
- IC50 (second compound 0.1 µM): 1.22 µM
- IC50 (second compound 0.316 µM): 1.26 µM
- IC50 (second compound 1 µM): 1.15 µM
- IC50 (second compound 3.16 µM): 0.221 µM
- IC50 (second compound 10 µM): < 0.0316 µM
- viability, T/C [1]: 82.6%
- viability, T/C [2]: 79.7%
- viability, T/C [3]: 70.5%
- viability, T/C [4]: 57.8%
- viability, T/C [5]: 23%
- viability, T/C [6]: 2.08%
- viability, T/C [7]: 83.6%
- viability, T/C [8]: 84%
- viability, T/C [9]: 84%
- viability, T/C [10]: 53.7%
- viability, T/C [11]: 24%
- viability, T/C [12]: 1.77%
- viability, T/C [13]: 83.8%
- viability, T/C [14]: 78.5%
- viability, T/C [15]: 72.8%
- viability, T/C [16]: 56.1%
- viability, T/C [17]: 18.1%
- viability, T/C [18]: 2.18%
- viability, T/C [19]: 50.4%
- viability, T/C [20]: 49.9%
- viability, T/C [21]: 51.5%
- viability, T/C [22]: 41.2%
- viability, T/C [23]: 16.9%
- viability, T/C [24]: 1.1%
- viability, T/C [25]: 3.86%
- viability, T/C [26]: 3.69%
- viability, T/C [27]: 2.11%
- viability, T/C [28]: 1.29%
- viability, T/C [29]: 0.5%
- viability, T/C [30]: 0.86%

SMILES: Nc1ccn(C2OC(CO)C(O)C2(F)F)c(=O)n1 (stereo not given) + Cc1cncc(-c2nc(NCCc3c[nH]c4ccccc34)c3ncn(C(C)C)c3n2)c1
- IC50 (second compound 0.1 µM): < 0.0316 µM
- IC50 (second compound 0.316 µM): < 0.0316 µM
- IC50 (second compound 1 µM): < 0.0316 µM
- IC50 (second compound 3.16 µM): < 0.0316 µM
- IC50 (second compound 10 µM): < 0.0316 µM
- viability, T/C [1]: 26.9%
- viability, T/C [2]: 33.5%
- viability, T/C [3]: 41.7%
- viability, T/C [4]: 41.2%
- viability, T/C [5]: 36.5%
- viability, T/C [6]: 39.1%
- viability, T/C [7]: 29%
- viability, T/C [8]: 32%
- viability, T/C [9]: 42.7%
- viability, T/C [10]: 43.7%
- viability, T/C [11]: 41.9%
- viability, T/C [12]: 39.9%
- viability, T/C [13]: 32.7%
- viability, T/C [14]: 26.5%
- viability, T/C [15]: 39.7%
- viability, T/C [16]: 42.2%
- viability, T/C [17]: 39.5%
- viability, T/C [18]: 34%
- viability, T/C [19]: 45.1%
- viability, T/C [20]: 27.8%
- viability, T/C [21]: 28.7%
- viability, T/C [22]: 30.5%
- viability, T/C [23]: 28.8%
- viability, T/C [24]: 33%
- viability, T/C [25]: 4.54%
- viability, T/C [26]: 4.79%
- viability, T/C [27]: 5.17%
- viability, T/C [28]: 3.59%
- viability, T/C [29]: 3.85%
- viability, T/C [30]: 5.49%

SMILES: O=C(c1cc(Cc2n[nH]c(=O)c3ccccc23)ccc1F)N1CCN(C(=O)C2CC2)CC1 + Cc1cncc(-c2nc(NCCc3c[nH]c4ccccc34)c3ncn(C(C)C)c3n2)c1
- IC50 (second compound 0.1 µM): > 10 µM
- IC50 (second compound 0.316 µM): > 10 µM
- IC50 (second compound 1 µM): > 10 µM
- IC50 (second compound 3.16 µM): > 10 µM
- IC50 (second compound 10 µM): < 0.0316 µM
- viability, T/C [1]: 96.9%
- viability, T/C [2]: 93.8%
- viability, T/C [3]: 89.2%
- viability, T/C [4]: 88.5%
- viability, T/C [5]: 89.2%
- viability, T/C [6]: 87.3%
- viability, T/C [7]: 102%
- viability, T/C [8]: 101%
- viability, T/C [9]: 97.9%
- viability, T/C [10]: 94.7%
- viability, T/C [11]: 93.8%
- viability, T/C [12]: 86%
- viability, T/C [13]: 92.8%
- viability, T/C [14]: 89.4%
- viability, T/C [15]: 93.8%
- viability, T/C [16]: 88.8%
- viability, T/C [17]: 84%
- viability, T/C [18]: 86%
- viability, T/C [19]: 56.3%
- viability, T/C [20]: 62.5%
- viability, T/C [21]: 59.8%
- viability, T/C [22]: 58.2%
- viability, T/C [23]: 54.3%
- viability, T/C [24]: 57.7%
- viability, T/C [25]: 4.54%
- viability, T/C [26]: 4.29%
- viability, T/C [27]: 4.31%
- viability, T/C [28]: 4.01%
- viability, T/C [29]: 4.31%
- viability, T/C [30]: 6.37%
